From US20260275299A1, “Bioprinted Three-Dimensional Tumor Model” (ASOCIACIÓN CENTRO DE INVESTIGACIÓN EN BIOMATERIALES - CIC …, priority 2023, published 2026)

Test system: MCF-7 tumor models
Test: Live/dead staining of drug-treated 3D tumor models
Type: cell-based, human
Conditions: 200 μM, compared to negative and positive controls
Description: To assess cell viability in both the core tumor model and the 3D breast tumor model with the stromal compartment, calcein (targets live cells in green) and propidium iodide (targets dead cells in red) were added to the cell culture medium of the 3D constructs at a 1:100 concentration.

Compound: CC/C(=C(\c1ccccc1)c1ccc(OCCN(C)C)cc1)c1ccccc1 [Tamoxifen]
- live/dead staining: Dead cells are observed in the outer regions of the models
